In US7923248B2, “Methods for producing microspore derived doubled haploid apiaceae” (NRC, priority 2005, dated 2011):

Test system: isolated microspores of vegetable fennel (VF-2)
Assay: Isolated microspore culture of fennel with EBR in the medium (embryo formation)
Format: cell-based, fennel (Foeniculum vulgare)
Details: FIG. 5
Protocol: FIG. 5. Effect of 24-Epibrassinolide on microspore embryogenesis of vegetable fennel (VF-2). A=NLN-25; B=NLN-25+0.1 mM EBR; C=NLN-25+1.0 mM EBR; D=NLN-25 changed to NLN-10; E=NLN-25+0.1 mM EBR changed to NLN-10; and F=NLN-25+1.0 mM EBR changed to NLN-10.
Several basal media were compared for fennel microspore embryogenesis. Donor plants for microspore culture were grown as described herein. Flower buds were measured and buds in the range of 1-3 mm were put into Lipshaw baskets. The Lipshaw baskets were immersed for one minute in 70% ethanol in a sterile beaker and placed on a shaker. After one minute, the ethanol was removed and the baskets containing the buds were rinsed with sterile water. The Lipshaw baskets were immersed for 15 min in 6% sodium hypochlorite in a sterile beaker placed on a shaker. After 15 min, the sodium hypochlorite was removed by three 5-min washes with sterile water. The buds were removed from the Lipshaw baskets with sterile forceps and placed in a mortar with 5 mL of half-strength Gamborg B5 medium with 13% sucrose. The buds were gently crushed with a pestle, and the resulting suspension was filtered through a 44 μm nylon screen cloth into a 50 mL sterile centrifuge tube. The mortar and filter were rinsed three times with 5 mL of half-strength B5-13 which was filtered and added to the suspension to a total of 20 mL. […]

## CC(C)[C@@H](C)[C@@H](O)[C@H](O)[C@@H](C)[C@H]1CC[C@H]2[C@@H]3COC(=O)[C@H]4C[C@H](O)[C@H](O)C[C@]4(C)[C@H]3CC[C@]12C [24 EBR, 24-epibrassinolide]
Continued exposure to EBR, NLN-25 medium, 32° C. for 3 days then 24° C.
  fennel embryo formation (microspore embryogenesis): somewhat inhibitory
Media change after 72 h to a lower sucrose concentration and removal of the EBR
  fennel embryo formation (microspore embryogenesis): stimulatory
